Data from US20250152553A1, “CARBAMOTHIOATE, AND CARBAMODITHIOATE DERIVATIVES OF MDMA, MDA OR ITS OPTICALLY ACTIVE (R)- OR (S)-MDMA AND MDA ISOMERS” (EmpathBio, Inc., priority 2023, published 2025).
Converted amounts (≈) assume the structure as drawn.

Assays:
[1] = Chemical stability in PBS pH 6.5; format: physicochemical; conditions: for half-life: PBS pH 6.5; for Remaining Percentage (%) 0 min: PBS pH 6.5, 0 min; for Remaining Percentage (%) 30 min: PBS pH 6.5, 30 min; for Remaining Percentage (%) 60 min: PBS pH 6.5, 60 min; for Remaining Percentage (%) 120 min: PBS pH 6.5, 120 min; for Remaining Percentage (%) 240 min: PBS pH 6.5, 240 min
[2] = Plasma stability in mouse plasma; format: in vitro ADME; conditions: for Remaining Percentages (%) 0 min / Remaining Percentages (%) 15 min / Remaining Percentages (%) 30 min / Remaining Percentages (%) 60 min / Remaining Percentages (%) 120 min: 1 μM; for half-life at 1 μM: test concentration 1 μM
Solubility in FaSSIF = format: physicochemical; conditions: read-out: SOL (μM) FaSSIF

Structure (SMILES)	half-life [1]	Remaining Percentage (%) 0 min [1]	Remaining Percentage (%) 30 min [1]	Remaining Percentage (%) 60 min [1]	Remaining Percentage (%) 120 min [1]	Remaining Percentage (%) 240 min [1]	Remaining Percentages (%) 0 min [2]	Remaining Percentages (%) 15 min [2]	Remaining Percentages (%) 30 min [2]	Remaining Percentages (%) 60 min [2]	Remaining Percentages (%) 120 min [2]	half-life at 1 μM [2]	solubility (Solubility in FaSSIF)
CSC(=O)N(C)C(C)Cc1ccc2c(c1)OCO2 (centres unmarked) [Prodrug 5, S-methyl (1-(benzo[d][1,3]dioxol-5-yl)propan-2-yl)(methyl)carbamothioate]	> 17.1 h	100.00%	91.67%	104.03%	96.42%	91.92%	100%	100.78%	98.96%	100.78%	94.52%	> 8.52 h	308 µM (≈ 82.3 µg/mL)
CSC(=O)NC(C)Cc1ccc2c(c1)OCO2 (centres unmarked) [Prodrug 6, S-methyl (1-(benzo[d][1,3]dioxol-5-yl)propan-2-yl)carbamothioate]	> 17.1 h	100.00%	93.08%	91.55%	88.38%	88.38%	100%	99.73%	103.77%	102.16%	90.30%	> 8.52 h	293 µM (≈ 74.1 µg/mL)
CCSC(=O)N(C)C(C)Cc1ccc2c(c1)OCO2 (centres unmarked) [Prodrug 7, S-ethyl (1-(benzo[d][1,3]dioxol-5-yl)propan-2-yl)(methyl)carbamothioate]	> 17.1 h	100.00%	99.17%	97.73%	95.86%	103.73%	100%	110.62%	111.95%	113.27%	102.65%	> 8.52 h	291 µM (≈ 82 µg/mL)
CCSC(=O)NC(C)Cc1ccc2c(c1)OCO2 (centres unmarked) [Prodrug 8, S-ethyl (1-(benzo[d][1,3]dioxol-5-yl)propan-2-yl)carbamothioate]	> 17.1 h	100.00%	113.02%	100.82%	102.82%	114.28%	100%	110.30%	106.34%	105.81%	101.19%	> 8.52 h	288 µM (≈ 77.1 µg/mL)
CSC(=S)N(C)C(C)Cc1ccc2c(c1)OCO2 (centres unmarked) [Prodrug 9, methyl (1-(benzo[d][1,3]dioxol-5-yl)propan-2-yl)(methyl)carbamodithioate]	> 17.1 h	100.00%	97.22%	96.84%	107.55%	89.55%	100%	101.32%	96.64%	98.79%	97.14%	> 8.52 h	30.4 µM (≈ 8.63 µg/mL)
CSC(=S)NC(C)Cc1ccc2c(c1)OCO2 (centres unmarked) [Prodrug 10, methyl (1-(benzo[d][1,3]dioxol-5-yl)propan-2-yl)carbamodithioate]	> 17.1 h	100.00%	96.55%	105.17%	109.86%	113.62%	100%	100.89%	98.00%	100.22%	89.09%	> 8.52 h	306 µM (≈ 82.5 µg/mL)
CCSC(=S)N(C)C(C)Cc1ccc2c(c1)OCO2 (centres unmarked) [Prodrug 11, ethyl (1-(benzo[d][1,3]dioxol-5-yl)propan-2-yl)(methyl)carbamodithioate]	> 17.1 h	100.00%	95.01%	93.41%	96.45%	94.38%	100%	97.92%	101.25%	94.58%	94.17%	> 8.52 h	63.7 µM (≈ 19 µg/mL)
CCSC(=S)NC(C)Cc1ccc2c(c1)OCO2 (centres unmarked) [Prodrug 12, ethyl (1-(benzo[d][1,3]dioxol-5-yl)propan-2-yl)carbamodithioate]	> 17.1 h	100.00%	102.94%	99.30%	104.13%	100.98%	100%	101.19%	92.04%	92.28%	89.25%	> 8.52 h	252 µM (≈ 71.3 µg/mL)
